According to PubChem BioAssay (NCI):
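Values below derive from 48-hour exposures of cells grown in 96-well plates, with endpoints linearly interpolated between the two concentrations bracketing the appropriate inhibition level. TGI: total growth inhibition.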

Experiments:
Assay in all cases: NCI tumour cell line growth inhibition, 48 h
MOLT-4 leukemia = test system: MOLT-4 leukemia
SF-539 CNS = test system: SF-539 CNS
SNB-78 CNS = test system: SNB-78 CNS
COLO 205 colon = test system: COLO 205 colon
OVCAR-5 ovarian = test system: OVCAR-5 ovarian
NCI/ADR-RES ovarian = test system: NCI/ADR-RES ovarian
HCT-15 colon = test system: HCT-15 colon
NCI-H460 lung = test system: NCI-H460 lung
SN12C renal = test system: SN12C renal
A498 renal = test system: A498 renal
SNB-75 CNS = test system: SNB-75 CNS
SK-OV-3 ovarian = test system: SK-OV-3 ovarian
M19-MEL melanoma = test system: M19-MEL melanoma
U251 CNS = test system: U251 CNS
HT29 colon = test system: HT29 colon
A549 NSCLC = test system: A549 NSCLC
OVCAR-3 ovarian = test system: OVCAR-3 ovarian
NCI-H522 lung = test system: NCI-H522 lung
UO-31 renal = test system: UO-31 renal
CAKI-1 renal = test system: CAKI-1 renal
HCT-116 colon = test system: HCT-116 colon
HOP-92 NSCLC = test system: HOP-92 NSCLC
LOX IMVI melanoma = test system: LOX IMVI melanoma
P388/ADR leukemia = test system: P388/ADR leukemia
SF-268 CNS = test system: SF-268 CNS
UACC-62 melanoma = test system: UACC-62 melanoma
SK-MEL-28 melanoma = test system: SK-MEL-28 melanoma
EKVX NSCLC = test system: EKVX NSCLC
K-562 leukemia = test system: K-562 leukemia
KM12 colon = test system: KM12 colon
OVCAR-8 ovarian = test system: OVCAR-8 ovarian
MCF7 breast = test system: MCF7 breast
NCI-H23 lung = test system: NCI-H23 lung
SNB-19 CNS = test system: SNB-19 CNS
KM20L2 colon = test system: KM20L2 colon
HL-60(TB) leukemia = test system: HL-60(TB) leukemia
HCC-2998 colon = test system: HCC-2998 colon
DMS 114 small cell lung = test system: DMS 114 small cell lung
SK-MEL-5 melanoma = test system: SK-MEL-5 melanoma
OVCAR-4 ovarian = test system: OVCAR-4 ovarian
HOP-62 NSCLC = test system: HOP-62 NSCLC
CCRF-CEM leukemia = test system: CCRF-CEM leukemia
P388 leukemia = test system: P388 leukemia
MALME-3M melanoma = test system: MALME-3M melanoma
SF-295 CNS = test system: SF-295 CNS
HOP-18 NSCLC = test system: HOP-18 NSCLC
RXF 393 renal = test system: RXF 393 renal
RPMI-8226 leukemia = test system: RPMI-8226 leukemia
XF 498 CNS = test system: XF 498 CNS
NCI-H226 lung = test system: NCI-H226 lung
SW-620 colon = test system: SW-620 colon
SN12K1 renal = test system: SN12K1 renal
DLD-1 colon = test system: DLD-1 colon
DMS 273 small cell lung = test system: DMS 273 small cell lung
UACC-257 melanoma = test system: UACC-257 melanoma
SK-MEL-2 melanoma = test system: SK-MEL-2 melanoma
IGROV1 ovarian = test system: IGROV1 ovarian

## O=C1C(=O)c2cc([N+](=O)[O-])ccc2-c2ccc([N+](=O)[O-])cc21
MOLT-4 leukemia
  TGI: 1150 nM
SF-539 CNS
  TGI: 1830 nM
SNB-78 CNS
  TGI: 2660 nM
COLO 205 colon
  TGI: 7750 nM
OVCAR-5 ovarian
  TGI: 6400 nM
NCI/ADR-RES ovarian
  TGI: 1030 nM
HCT-15 colon
  TGI: 3020 nM
NCI-H460 lung
  TGI: 2650 nM
SN12C renal
  TGI: 2290 nM
A498 renal
  TGI: 3790 nM
SNB-75 CNS
  TGI: 5200 nM
SK-OV-3 ovarian
  TGI: 5310 nM
M19-MEL melanoma
  TGI: 789 nM
U251 CNS
  TGI: 2360 nM
HT29 colon
  TGI: 22700 nM
A549 NSCLC
  TGI: 5970 nM
OVCAR-3 ovarian
  TGI: 662 nM
NCI-H522 lung
  TGI: 3000 nM
UO-31 renal
  TGI: 4440 nM
CAKI-1 renal
  TGI: 2140 nM
HCT-116 colon
  TGI: 885 nM
HOP-92 NSCLC
  TGI: 1640 nM
LOX IMVI melanoma
  TGI: 3820 nM
P388/ADR leukemia
  TGI: 2540 nM
SF-268 CNS
  TGI: 1930 nM
UACC-62 melanoma
  TGI: 1540 nM
SK-MEL-28 melanoma
  TGI: 4210 nM
EKVX NSCLC
  TGI: 3940 nM
K-562 leukemia
  TGI: 2010 nM
KM12 colon
  TGI: 2660 nM
OVCAR-8 ovarian
  TGI: 1270 nM
MCF7 breast
  TGI: 2610 nM
NCI-H23 lung
  TGI: 2770 nM
SNB-19 CNS
  TGI: 4650 nM
KM20L2 colon
  TGI: 21700 nM
HL-60(TB) leukemia
  TGI: 2060 nM
HCC-2998 colon
  TGI: 5410 nM
DMS 114 small cell lung
  TGI: 908 nM
SK-MEL-5 melanoma
  TGI: 3670 nM
OVCAR-4 ovarian
  TGI: 951 nM
HOP-62 NSCLC
  TGI: 5870 nM
CCRF-CEM leukemia
  TGI: 1670 nM
P388 leukemia
  TGI: 520 nM
MALME-3M melanoma
  TGI: 3840 nM
SF-295 CNS
  TGI: 3530 nM
HOP-18 NSCLC
  TGI: 8890 nM
RXF 393 renal
  TGI: 892 nM
RPMI-8226 leukemia
  TGI: 1350 nM
XF 498 CNS
  TGI: 2640 nM
NCI-H226 lung
  TGI: 4090 nM
SW-620 colon
  TGI: 1560 nM
SN12K1 renal
  TGI: 964 nM
DLD-1 colon
  TGI: 3950 nM
DMS 273 small cell lung
  TGI: 1830 nM
UACC-257 melanoma
  TGI: 3190 nM
SK-MEL-2 melanoma
  TGI: 4160 nM
IGROV1 ovarian
  TGI: 2290 nM
